The text below walks through data of patent publication US9107415B2, “2-(substituted-phenyl)-cyclopentane-1,3-dione compounds, and derivatives thereof” (Syngenta Limited, priority 2011, dated 2015).

Common to all, as to assay type: in vivo
Experiment [1] deals with Alopecurus myosuroides (ALOMY). Put plainly: Biological Example 1 glasshouse screen, post-emergence herbicidal activity. The conditions noted are these: 312 h, application rate 250 g/ha, evaluated after 13 days, read-out: ALOMY percentage phytotoxicity. The protocol:
(§1) Seeds of a variety of test species were sown in standard soil in pots. After cultivation for one day (pre-emergence) or after 8 days cultivation (post-emergence) under controlled conditions in a glasshouse (at 24/16°C., day/night; 14 hours light; 65% humidity), the plants were sprayed with an aqueous spray solution derived from the formulation of the “technical”(i.e. unformulated) active ingredient in acetone/water (50:50) solution containing 0.5% Tween 20 (polyoxyethylene sorbitan monolaurate, CAS Registry Number 9005-64-5). The test plants were then grown in a glasshouse under controlled conditions in a glasshouse (at 24/16°C., day/night; 14 hours light; 65% humidity) and watered twice daily. After 13 days for pre- or post-emergence, the test was evaluated visually, and an assessed percentage phytotoxicity score given for each herbicidal application on each plant/weed species (with 100%=total damage to plant; 0%=no damage to plant).
(§2) Test plants: Alopecurus myosuroides (ALOMY), Setaria faberi (SETFA), Echinochloa crus-galli (ECHCG), Solanum nigrum (SOLNI), Amaranthus retroflexus (AMARE) and Ipomoea hederacea (IPOHE). ALOMY, SETFA and ECHCG are grassy monocotyledonous weeds. SOLNI, AMARE and IPOHE are dicotyledonous (broadleaved) weeds.
(§3) Test plants: Lolium perenne (LOLPE), Alopecurus myosuroides (ALOMY), Echinochloa crus-galli (ECHCG), and Avena fatua (AVEFA). All four of these are grassy monocotyledonous weeds.

Experiment [2] has as its system Echinochloa crus-galli (ECHCG). Described as above. The conditions noted are these: 312 h, application rate 250 g/ha, evaluated after 13 days, read-out: ECHCG percentage phytotoxicity. The protocol: as §1, §2, §3
For experiment [3], the system named is Avena fatua (AVEFA). The experiment is described as above. The settings on record: 312 h, application rate 250 g/ha, evaluated after 13 days, read-out: AVEFA percentage phytotoxicity. On the procedure:
as §1, §3

For experiment [4], the system named is Lolium perenne (LOLPE). The description is as above. The settings on record: 312 h, application rate 250 g/ha, evaluated after 13 days, read-out: LOLPE percentage phytotoxicity. On the procedure:
as §1, §3

Experiment [5] has as its system Triticum aestivum, wheat (TRZAW). Put plainly: Biological Example 3 glasshouse screen, post-emergence, phytotoxicity on wheat. The settings on record: 360 h, 15 DAA, no safener, read-out: TRZAW percentage phytotoxicity; for pest or weed control at 30 g/ha: application rate 30 g/ha; for pest or weed control at 60 g/ha: application rate 60 g/ha. The protocol: (§4) Test Method: Seeds of a variety of test species are sown in standard soil in pots. After cultivation for one day (pre-emergence) or after 12 days cultivation (post-emergence) under controlled conditions in a glasshouse (warm climate species at 24/18°C., cool climate species at 20/16°C., both at day/night; 16 hours light; 65% humidity), the plants are sprayed with an aqueous spray solution derived from the formulation of the “technical”(i.e. unformulated) active ingredient dissolved in acetone plus IF50, at a 1:20 ratio of “technical”active ingredient to IF50. The IF50 contains about 10.56 weight % Emulsogen EL™(castor oil ethoxylate, CAS Registry number 61791-12-6), about 42.22 weight % N-methylpyrrolidone, and about 42.22 weight % DPG-Monoethyl ether (dipropylene glycol mono-ethyl ether). The adjuvant X-77 (a mixture of alkyl aryl polyoxyethylene glycols and free fatty acids in isopropanol, CAS Registry number 11097-66-8) is added to the aqueous spray solution to form a 0.2% v/v solution, before spraying onto the plants.
The test plants are then grown in a glasshouse under controlled conditions in a glasshouse (at 24/18°C. or 20/16°C., day/night; 16 hours light; 65% humidity) and watered twice daily. After 15 days after application of the herbicide (15 DAA) (for post-emergence), and after 20 DAA (for pre-emergence), the test is evaluated visually, and an assessed percentage phytotoxicity score is given for each herbicidal application on each plant/weed species (with 100%=total damage to plant; 0%=no damage to plant).
These give an approximate indication of the level of selectivity on wheat for these tested compounds, when a herbicide safener such as cloquintocet-mexyl is not used: […]

Experiment [6] concerns Alopecurus myosuroides, blackgrass (ALOMY). In words: Biological Example 3 glasshouse screen, post-emergence herbicidal activity. The conditions noted are these: 360 h, 15 DAA, no safener, read-out: ALOMY percentage phytotoxicity; for pest or weed control at 30 g/ha: application rate 30 g/ha; for pest or weed control at 60 g/ha: application rate 60 g/ha. On the procedure:
as §4
(§5) The test plants are then grown in a glasshouse under controlled conditions in a glasshouse (at 24/18°C. or 20/16°C., day/night; 16 hours light; 65% humidity) and watered twice daily. After 15 days after application of the herbicide (15 DAA) (for post-emergence), and after 20 DAA (for pre-emergence), the test is evaluated visually, and an assessed percentage phytotoxicity score is given for each herbicidal application on each plant/weed species (with 100%=total damage to plant; 0%=no damage to plant). […]

Experiment [7] concerns Avena fatua, wild oats (AVEFA). Described as above. The conditions noted are these: 360 h, 15 DAA, no safener, read-out: AVEFA percentage phytotoxicity; for pest or weed control at 30 g/ha: application rate 30 g/ha; for pest or weed control at 60 g/ha: application rate 60 g/ha. On the procedure:
as §4, §5

Experiment [8] deals with Echinochloa crus galli, barnyardgrass (ECHCG). The experiment is described as above. The conditions noted are these: 360 h, 15 DAA, no safener, read-out: ECHCG percentage phytotoxicity; for pest or weed control at 30 g/ha: application rate 30 g/ha; for pest or weed control at 60 g/ha: application rate 60 g/ha. The protocol: as §4, §5
For experiment [9], the system named is Lolium perenne, perennial ryegrass (LOLPE). The description is as above. The conditions noted are these: 360 h, 15 DAA, no safener, read-out: LOLPE percentage phytotoxicity; for pest or weed control at 30 g/ha: application rate 30 g/ha; for pest or weed control at 60 g/ha: application rate 60 g/ha. The protocol:
as §4, §5

Experiment [10] has as its system Alopecurus myosuroides (ALOMY). Put plainly: Biological Example 1 glasshouse screen, pre-emergence herbicidal activity. The settings on record: 312 h, application rate 250 g/ha, evaluated after 13 days, read-out: ALOMY percentage phytotoxicity. On the procedure: as §1, §2, §3
Experiment [11] deals with Echinochloa crus-galli (ECHCG). The description is as above. The conditions noted are these: 312 h, application rate 250 g/ha, evaluated after 13 days, read-out: ECHCG percentage phytotoxicity. On the procedure:
as §1, §2, §3

In experiment [12] the test system is Avena fatua (AVEFA). Described as above. The conditions noted are these: 312 h, application rate 250 g/ha, evaluated after 13 days, read-out: AVEFA percentage phytotoxicity. On the procedure:
as §1, §3

The test system of experiment [13] is Lolium perenne (LOLPE). The experiment is described as above. The conditions noted are these: 312 h, application rate 250 g/ha, evaluated after 13 days, read-out: LOLPE percentage phytotoxicity. On the procedure: as §1, §3
In experiment [14] the test system is Alopecurus myosuroides (ALOMY). Put plainly: Biological Example 2 post-emergence herbicidal activity (comparative data). The conditions noted are these: 312 h, read-out: ALOMY percentage phytotoxicity; for pest or weed control at 15.625 g/ha: 15.625 g/ha application rate; for pest or weed control at 62.5 g/ha: 62.5 g/ha application rate. The protocol:
as §1
(§6) Comparative herbicidal data are given for certain exemplified compounds with 4-(prop-1-ynyl)-2,6-dimethylphenyl or 4-(chloroethynyl)-2,6-dimethylphenyl headgroups, compared to the corresponding comparative compounds with 4-ethynyl-2,6-dimethylphenyl headgroups, as follows.
(§7) Except where specified otherwise, the glasshouse screen for herbicidal activity is substantially the same as that presented in Biological Example 1 hereinabove. The weed abbreviations are as defined in Biological Example 1.

The test system of experiment [15] is Avena fatua (AVEFA). The experiment is described as above. On the procedure:
as §1, §6, §7

For experiment [16], the system named is Echinochloa crus-galli (ECHCG). The description is as above. The settings on record: 312 h, read-out: ECHCG percentage phytotoxicity; for pest or weed control at 15.625 g/ha: 15.625 g/ha application rate; for pest or weed control at 62.5 g/ha: 62.5 g/ha application rate. The protocol:
as §1, §6, §7

Experiment [17] concerns Lolium perenne (LOLPE). The description is as above. The protocol: as §1, §6, §7
In experiment [18] the test system is Setaria faberi (SETFA). The description is as above. On the procedure:
as §1, §6, §7

With `CC#Cc1cc(C)c(C2=C(O)CC(Cc3cccc(F)n3)C2=O)c(C)c1` (centres unmarked) [Compound A-7], the pest or weed control at 250 g/ha in experiment [1] was found to be 100%; in experiment [2], 100%; in experiment [3] it was 90%; in experiment [4] it was 100%. The pest or weed control at 30 g/ha in experiment [5] is 40%; in experiment [6], 70%; in experiment [7], 40%; in experiment [8] it was 80%; in [9], 80%. The pest or weed control at 60 g/ha in experiment [5] was 50%; in [6], 80%; in experiment [7], 50%; in [8], 100%; in experiment [9], 90%.

As to `CC#Cc1cc(C)c(C2=C(O)CC(Cc3cccc(C)n3)C2=O)c(C)c1` (centres unmarked) [Compound A-9], the pest or weed control at 250 g/ha in [10] was 100%; in experiment [11], 100%; in experiment [12] it was 100%; in experiment [13] it was 100%; in [1], 90%; in [2], 100%. In addition, the pest or weed control at 250 g/ha in [3] and in [4] was 100% throughout. The pest or weed control at 30 g/ha in experiment [5] came out at 20%; in [6], 70%; in [7] it was 30%; in [8], 70%; in experiment [9] it was 50%. Moreover, the pest or weed control at 60 g/ha is 30% in [5]; 80% in [6]; 30% in [7]; 100% in experiment [8]; 100% in experiment [9].

With `CC#Cc1cc(C)c(C2=C(O)CC(Cc3cccnc3)C2=O)c(C)c1` (centres unmarked) [Compound A-10], the pest or weed control at 250 g/ha in experiment [10] came to 80%; in experiment [11] it was 100%; in [12], 90%; in experiment [13] it was 100%; in experiment [1], 90%; in experiment [2], 100%. Also, the pest or weed control at 250 g/ha in experiment [3] is 90%; in [4], 100%. Further, the pest or weed control at 60 g/ha stood at 50% in experiment [5]; 80% in experiment [6]; 50% in experiment [7]; 80% in experiment [8]; 40% in [9].

For `CC#Cc1cc(C)c(C2=C(O)CC(Cc3cccnc3C#CC)C2=O)c(C)c1` (centres unmarked) [Compound A-15], the pest or weed control at 250 g/ha in [10] stood at 90%; in [11], 100%; in experiment [12], 70%; in experiment [13], 100%; in experiment [1] it was 90%; in experiment [2], 100%. Besides, the pest or weed control at 250 g/ha in [3] and in [4] was 100% each time. The pest or weed control at 60 g/ha in experiment [5] was found to be 30%; in [6], 50%; in experiment [7] it was 80%; in experiment [8] it was 80%; in [9], 40%.

Regarding `C#Cc1cc(C)c(C2=C(O)CC(Cc3ccccn3)C2=O)c(C)c1` (centres unmarked) [X-1, reference compound], the pest or weed control at 15.625 g/ha was found to be 60% in [14] and 70% in experiment [16]. Also, the pest or weed control at 62.5 g/ha was 100% in experiment [14] and 80% in experiment [16]. Besides, the values for the AVEFA percentage phytotoxicity in experiment [15] (15.625 g/ha application rate) and in experiment [15] (62.5 g/ha application rate) were 50% and 90%, respectively. The LOLPE percentage phytotoxicity is 60% in [17] (15.625 g/ha application rate) and 100% in [17] (62.5 g/ha application rate).

Turning to `C#Cc1cc(C)c(C2C(=O)CCC2=O)c(C)c1` [X-3, reference compound], the pest or weed control at 15.625 g/ha in experiment [14] and in experiment [16] was 0% throughout. In addition, the pest or weed control at 62.5 g/ha turned out to be 0% in [14] and 20% in experiment [16]. For the same molecule, the SETFA percentage phytotoxicity in experiment [18] (15.625 g/ha application rate) and in experiment [18] (62.5 g/ha application rate) was 0% each time.

For `C#Cc1cc(C)c(C2C(=O)C3C(C2=O)[C@H]2CC[C@@H]3O2)c(C)c1` (some centres unmarked) [X-4, reference compound], the pest or weed control at 15.625 g/ha in [14] is 30%; in [16], 80%. The pest or weed control at 62.5 g/ha in experiment [14] and in experiment [16] was 80% throughout. Moreover, the SETFA percentage phytotoxicity in experiment [18] (15.625 g/ha application rate) and in [18] (62.5 g/ha application rate) was 40% each time.

Turning to `Cc1cc(-c2ccc(F)cc2)cc(C)c1C1C(=O)CC(Cc2ccc(C#N)cn2)C1=O` (centres unmarked) [reference compound], the pest or weed control at 30 g/ha was 50% in experiment [5]; 70% in experiment [6]; 30% in [7]; 100% in [8]; 10% in [9].
